Laboratory results taken from patent US8691864B2, “Agents useful for reducing amyloid precursor protein and treating dementia and methods of use thereof” (priority 2000, dated 2014).

Each compound was assayed on secreted APP (assay: ELISA for secreted APP in SHSY5Y cells). Settings: Dose 2 uM, 16 hours.
Format: cell-based, human
Procedure: (§1) An enzyme-linked immunosorbent assay was developed to detect secreted APP in SHSY5Y cells, a human neuroblastoma cell line. The purpose of the screen was to discover small molecules that inhibit APP protein synthesis in SHSY5Y cells. SHSY5Y cells were plated at 1×10^5 cells/well in […] of DMEM containing 0.5% heat inactivated FBS in 96 well tissue culture treated plates (Falcon no. 35 3072). 144 MES compounds were tested at final concentrations of […] in 0.1% DMSO. Compounds were added and the plates incubated for 16 hours at 37° C./5% CO2. Maxisorp plates (Nunc no. 437958) were coated overnight with […] capture antibody (Biosource 44-100) diluted in Ca^++ and Mg^++ free PBS. Biosource 44-100 is a mouse mAb that recognizes aa 1-100 of human APP. Plates were blocked for 30 minutes with 1 mg/mL BSA in Ca^++ and Mg^++ free PBS. Plates were washed 3× with wash buffer (Ca^++ and Mg^++ free PBS+0.01% Tween20). […] of supernatants and non-cultured medium controls were transferred from culture plates to ELISA plates. Culture plates were reserved for toxicity analysis. Supernatants were incubated for 4 hours at RT on a plate shaker. After supernatant incubation, plates were washed 3×. Primary antibody (Signet Clone 6E-10 biotin) was added at 0.3125 mg/mL and incubated overnight at 4° C. The recognition site of 6E-10 is aa 1-17 of Ab. For detection, a 1:3000 dilution of horseradish peroxidase conjugated streptavidin (Endogen no. N-100) was incubated for 30 minutes. Plates were washed 3×. Enzyme activity was assessed by incubation with […] TMB substrate solution (Moss no. TMB-US) for 20 minutes. The reaction was stopped by the addition of […] 0.18M sulfuric acid. Optical density was read at 450 nm on Wallac Victor2 plate reader. During the first incubation, toxicity was determined using MTS assay, Cell Titer96 AQ reagent (Promega no. G5430). The background values from the non-cultured medium control were subtracted from the sample values and secreted APP levels and toxicity were expressed as % vehicle control. Of the 144 MES compounds screened, 12 inhibited secreted APP as determined by ELISA. The results are depicted in FIGS. 13A-M.
(§2) Using the experimental procedure outlined above, APP secretion and toxicity studies were performed on several other non-carbamate compounds, and the results are shown in Tables 3 and 4. The compound structures are provided in Table 2 in the application, which are identified by their MES number.

Row | SMILES | APP Secretion by SH-SY-5Y Cells
1 | COc1ccc2c(c1)C(O)(c1ccccc1)C(=O)N2C (stereo not drawn) [MES 9319] | 108.95 % vehicle control
2 | CN1CC[C@]2(C)c3cc(O)ccc3N(C)C12 (stereo partly drawn) [MES 9230] | 101.25 % vehicle control
3 | COc1ccc2c(c1)C(C)(c1ccccc1)C(=O)N2C (stereo not drawn) [MES 9324] | 110.3 % vehicle control
4 | CN1c2ccc(OC3CCCCO3)cc2[C@]2(C)CCNC12 (single isomer, unassigned; (-)) [MES 9320, (−)-O-Tetrahydropyranyl-N-1-noreseroline] | 103.15 % vehicle control
5 | CN(C)Cc1cc2c(cc1O)[C@]1(C)CCN(C)C1N2C (stereo partly drawn) [MES 9266] | 94.4 % vehicle control
6 | COc1ccc2c(c1)[C@]1(C)CCN(Cc3ccccc3)C1N2C=O (stereo partly drawn) [MES 9277] | 98.25 % vehicle control
7 | CN1CC[C@@]2(C)c3cc(O)ccc3N(Cc3ccccc3)C12 (stereo partly drawn) [MES 9206] | 88.2 % vehicle control

Same assay, conditions: Dose 2 uM, 16 hours; listed as 9231

Row | SMILES | APP Secretion by SH-SY-5Y Cells
8 | COc1ccc2c(c1)[C@]1(C)CCN(Cc3ccccc3)C1N2C (stereo partly drawn) [MES 9231] | 104.9 % vehicle control

Same assay, conditions: Dose 6 uM, 16 hours

Row | SMILES | APP Secretion by SH-SY-5Y Cells
9 | COc1ccc2c(c1)C(O)(c1ccccc1)C(=O)N2C (stereo not drawn) [MES 9319] | 114.1 % vehicle control
10 | CN1CC[C@]2(C)c3cc(O)ccc3N(C)C12 (stereo partly drawn) [MES 9230] | 88.8 % vehicle control
11 | COc1ccc2c(c1)C(C)(c1ccccc1)C(=O)N2C (stereo not drawn) [MES 9324] | 95.9 % vehicle control
12 | CN1c2ccc(OC3CCCCO3)cc2[C@]2(C)CCNC12 (single isomer, unassigned; (-)) [MES 9320, (−)-O-Tetrahydropyranyl-N-1-noreseroline] | 91.8 % vehicle control
13 | CN(C)Cc1cc2c(cc1O)[C@]1(C)CCN(C)C1N2C (stereo partly drawn) [MES 9266] | 95.2 % vehicle control
14 | COc1ccc2c(c1)[C@]1(C)CCN(Cc3ccccc3)C1N2C=O (stereo partly drawn) [MES 9277] | 109 % vehicle control
15 | CN1CC[C@@]2(C)c3cc(O)ccc3N(Cc3ccccc3)C12 (stereo partly drawn) [MES 9206] | 97.1 % vehicle control

Same assay, conditions: Dose 6 uM, 16 hours; listed as 9231

Row | SMILES | APP Secretion by SH-SY-5Y Cells
16 | COc1ccc2c(c1)[C@]1(C)CCN(Cc3ccccc3)C1N2C (stereo partly drawn) [MES 9231] | 133.5 % vehicle control

Same assay, conditions: Dose 20 uM, 16 hours

Row | SMILES | APP Secretion by SH-SY-5Y Cells
17 | COc1ccc2c(c1)C(O)(c1ccccc1)C(=O)N2C (stereo not drawn) [MES 9319] | 112.8 % vehicle control
18 | CN1CC[C@]2(C)c3cc(O)ccc3N(C)C12 (stereo partly drawn) [MES 9230] | 4.4 % vehicle control
19 | COc1ccc2c(c1)C(C)(c1ccccc1)C(=O)N2C (stereo not drawn) [MES 9324] | 99.95 % vehicle control
20 | CN1c2ccc(OC3CCCCO3)cc2[C@]2(C)CCNC12 (single isomer, unassigned; (-)) [MES 9320, (−)-O-Tetrahydropyranyl-N-1-noreseroline] | 15.2 % vehicle control
21 | CN(C)Cc1cc2c(cc1O)[C@]1(C)CCN(C)C1N2C (stereo partly drawn) [MES 9266] | 94.85 % vehicle control
22 | COc1ccc2c(c1)[C@]1(C)CCN(Cc3ccccc3)C1N2C=O (stereo partly drawn) [MES 9277] | 113.6 % vehicle control
23 | CN1CC[C@@]2(C)c3cc(O)ccc3N(Cc3ccccc3)C12 (stereo partly drawn) [MES 9206] | 96.4 % vehicle control

Same assay, conditions: Dose 20 uM, 16 hours; listed as 9231

Row | SMILES | APP Secretion by SH-SY-5Y Cells
24 | COc1ccc2c(c1)[C@]1(C)CCN(Cc3ccccc3)C1N2C (stereo partly drawn) [MES 9231] | 154.2 % vehicle control

Each compound was assayed on SH-SY-5Y Cells (assay: MTS toxicity assay in SHSY5Y cells). Settings: Dose 2 uM.
Format: cell-based, human
Procedure: as §1, §2

Row | SMILES | APP Toxicity SH-SY-5Y Cells (MTS assay)
25 | COc1ccc2c(c1)C(O)(c1ccccc1)C(=O)N2C (stereo not drawn) [MES 9319] | 99.8 % vehicle control
26 | CN1CC[C@]2(C)c3cc(O)ccc3N(C)C12 (stereo partly drawn) [MES 9230] | 100.8 % vehicle control
27 | COc1ccc2c(c1)C(C)(c1ccccc1)C(=O)N2C (stereo not drawn) [MES 9324] | 102.15 % vehicle control
28 | CN1c2ccc(OC3CCCCO3)cc2[C@]2(C)CCNC12 (single isomer, unassigned; (-)) [MES 9320, (−)-O-Tetrahydropyranyl-N-1-noreseroline] | 92 % vehicle control
29 | CN(C)Cc1cc2c(cc1O)[C@]1(C)CCN(C)C1N2C (stereo partly drawn) [MES 9266] | 96.55 % vehicle control
30 | COc1ccc2c(c1)[C@]1(C)CCN(Cc3ccccc3)C1N2C=O (stereo partly drawn) [MES 9277] | 98.25 % vehicle control
31 | CN1CC[C@@]2(C)c3cc(O)ccc3N(Cc3ccccc3)C12 (stereo partly drawn) [MES 9206] | 96 % vehicle control

Same assay, conditions: Dose 2 uM; listed as 9231

Row | SMILES | APP Toxicity SH-SY-5Y Cells (MTS assay)
32 | COc1ccc2c(c1)[C@]1(C)CCN(Cc3ccccc3)C1N2C (stereo partly drawn) [MES 9231] | 95.7 % vehicle control

Same assay, conditions: Dose 6 uM

Row | SMILES | APP Toxicity SH-SY-5Y Cells (MTS assay)
33 | COc1ccc2c(c1)C(O)(c1ccccc1)C(=O)N2C (stereo not drawn) [MES 9319] | 101.05 % vehicle control
34 | CN1CC[C@]2(C)c3cc(O)ccc3N(C)C12 (stereo partly drawn) [MES 9230] | 86.13 % vehicle control
35 | COc1ccc2c(c1)C(C)(c1ccccc1)C(=O)N2C (stereo not drawn) [MES 9324] | 100.4 % vehicle control
36 | CN1c2ccc(OC3CCCCO3)cc2[C@]2(C)CCNC12 (single isomer, unassigned; (-)) [MES 9320, (−)-O-Tetrahydropyranyl-N-1-noreseroline] | 84 % vehicle control
37 | CN(C)Cc1cc2c(cc1O)[C@]1(C)CCN(C)C1N2C (stereo partly drawn) [MES 9266] | 97.75 % vehicle control
38 | COc1ccc2c(c1)[C@]1(C)CCN(Cc3ccccc3)C1N2C=O (stereo partly drawn) [MES 9277] | 98.3 % vehicle control
39 | CN1CC[C@@]2(C)c3cc(O)ccc3N(Cc3ccccc3)C12 (stereo partly drawn) [MES 9206] | 91.85 % vehicle control

Same assay, conditions: Dose 6 uM; listed as 9231

Row | SMILES | APP Toxicity SH-SY-5Y Cells (MTS assay)
40 | COc1ccc2c(c1)[C@]1(C)CCN(Cc3ccccc3)C1N2C (stereo partly drawn) [MES 9231] | 90.73 % vehicle control

Same assay, conditions: Dose 20 uM

Row | SMILES | APP Toxicity SH-SY-5Y Cells (MTS assay)
41 | COc1ccc2c(c1)C(O)(c1ccccc1)C(=O)N2C (stereo not drawn) [MES 9319] | 102.7 % vehicle control
42 | CN1CC[C@]2(C)c3cc(O)ccc3N(C)C12 (stereo partly drawn) [MES 9230] | 13.83 % vehicle control
43 | COc1ccc2c(c1)C(C)(c1ccccc1)C(=O)N2C (stereo not drawn) [MES 9324] | 98.65 % vehicle control
44 | CN1c2ccc(OC3CCCCO3)cc2[C@]2(C)CCNC12 (single isomer, unassigned; (-)) [MES 9320, (−)-O-Tetrahydropyranyl-N-1-noreseroline] | 28 % vehicle control
45 | CN(C)Cc1cc2c(cc1O)[C@]1(C)CCN(C)C1N2C (stereo partly drawn) [MES 9266] | 94.15 % vehicle control
46 | COc1ccc2c(c1)[C@]1(C)CCN(Cc3ccccc3)C1N2C=O (stereo partly drawn) [MES 9277] | 91.1 % vehicle control
47 | CN1CC[C@@]2(C)c3cc(O)ccc3N(Cc3ccccc3)C12 (stereo partly drawn) [MES 9206] | 76.3 % vehicle control

Same assay, conditions: Dose 20 uM; listed as 9231

Row | SMILES | APP Toxicity SH-SY-5Y Cells (MTS assay)
48 | COc1ccc2c(c1)[C@]1(C)CCN(Cc3ccccc3)C1N2C (stereo partly drawn) [MES 9231] | 85.87 % vehicle control
